According to patent US11472846B2, “Compositions and methods for treating diseases by inhibiting exosome release” (priority 2016, dated 2022):

Experiments:
Type in all cases: cell-based, human
K562 cells = experiment: Complement-mediated cell cytotoxicity assay (trypan blue), K562; conditions: for cell death under complement-positive conditions: 280 nM PEG-SMRwt-Clu or 560 nM SMRwt-CPP 60 min, then anti-CXCR4 antibody and NHS 60 min; for cell death under complement-negative conditions: 280 nM PEG-SMRwt-Clu or 560 nM SMRwt-CPP, 60 min
Description: (§1) 7-9. Complement-mediated cell cytotoxicity assay. Complement-mediated cell cytotoxicity assays were performed as previously described (Reiter et al., Mol Immunol. (1992) 29(6): p. 771-81). Briefly, MCF-7, MDA-MB-231 and K562 cells were either mock-transfected or transfected with mortalin siRNA. Cells were incubated with 1 μg/ml of anti-CXCR4 antibody for 30 min at 4° C., followed by treatment with PEG-SMRwt-Clu peptide or PEG-SMRmut-Clu peptide or SMRwt-CPP peptide or SMRmut-CPP peptide alone, or treated with SMR peptide combined with complement from normal human serum (NHS) or heat-inactivated normal human serum (NIS) for 60 min at 37° C. Percentage of cells lysed were determined by a trypan blue exclusion assay using the TC10™ Automated Cell Counter (Bio-Rad, Richmond Calif.). (FIG. 14, FIG. 15, Panel D).

[1] = test system: MCF-7 breast cancer cells; experiment: InnoCyte cell migration assay, MCF-7; conditions: MCF-7 cells, 1120 nM SMR peptide or 3 μM Latrunculin A, 24 hours
Description: 7-12. Cell migration assay. Cell migration assays were performed using the InnoCyte Cell Migration Assay (EMD Millipore Corporation, Temecula, Calif.) according to the manufacturer's instructions. Briefly, cell migration was monitored in the presence and absence of SMRwt peptides or latrunculin A (positive control inhibitor), which were added to the lower chamber of a 96-well plate. MCF-7 and MDA-MB-231 breast cancer cells and non-tumorigenic MCF-10A breast cells were harvested by 0.25% Trypsin-EDTA (Life Technologies) release and resuspended at 250,000500,000 cells/ml in serum-free RPMI 1640 media. A total of 25,000-50,000 cells was added to the upper chamber and allowed to migrate through an 8-μm pore-size membrane for 24 hours at 37° C. in a 5% CO2 atmosphere. Cells that migrated through the membrane were detached and labeled with Calcein-AM fluorescent dye. Fluorescence was measured using a Fluorescence Plate Reader (Molecular Devices, Sunnyvale, Calif.) with an excitation wavelength of 485 nm and an emission wavelength of 515 nm. The experiment was repeated in triplicate, and each conditioned experiment was performed in quadruplicate.

MDA-MB-231 cells = experiment: Complement-mediated cell cytotoxicity assay (trypan blue), MDA-MB-231; conditions: for cell death under complement-positive conditions: 280 nM PEG-SMRwt-Clu or 560 nM SMRwt-CPP 60 min, then anti-CXCR4 antibody and NHS 60 min; for cell death under complement-negative conditions: 280 nM PEG-SMRwt-Clu or 560 nM SMRwt-CPP, 60 min
Description: as §1, with “Cells were incubated with 1 μg/ml of anti-CXCR4 antibody for 30 min at 4° C., followed by treatment with PEG-SMRwt-Clu peptide or PEG-SMRmut-Clu peptide” left out

MCF-7 cells = experiment: Complement-mediated cell cytotoxicity assay (trypan blue), MCF-7; conditions: for cell death under complement-positive conditions: 280 nM PEG-SMRwt-Clu or 560 nM SMRwt-CPP 60 min, then anti-CXCR4 antibody and NHS 60 min; for cell death under complement-negative conditions: 280 nM PEG-SMRwt-Clu or 560 nM SMRwt-CPP, 60 min
Description: as §1

Row | Sequence | cell death under complement-positive conditions (K562 cells) | cell death under complement-negative conditions (K562 cells) | reduced migration by [1] | cell death under complement-positive conditions (MDA-MB-231 cells) | cell death under complement-negative conditions (MDA-MB-231 cells) | cell death under complement-positive conditions (MCF-7 cells) | cell death under complement-negative conditions (MCF-7 cells)
1 | NXNVGFPVAAVGFPVHPLSKHPYWSQP (SEQ ID NO: 37) [PEG-SMRwt-Clu] | 55% | 4.3% | 75.74% | 76% | 3.6% | 26% | 2.1%
2 | VGFPVAAVGFPVGRKKRRQRRRPPQ [SMRwt-CPP] | 23% | 4.3% | 71.87% | 9% | 3.6% | 29% | 2.1%
